Where two headings read alike, the source gives them in different places.
Assays:
Type in all cases: in vivo
[1] = test system: Phytophthora infestans (Tomatoes); settings: one or two days before inoculation
[2] = test system: Septoria nodorum (Wheat); assay: Foliar fungal disease test on plants: Septoria nodorum (Wheat); settings: one or two days before inoculation
[3] = test system: Thanatephorus cucumeries (Rice); assay: Foliar fungal disease test on plants: Thanatephorus cucumeries (Rice); settings: one or two days before inoculation
[4] = test system: Puccinia recondita (Wheat); assay: Foliar fungal disease test on plants: Puccinia recondita (Wheat)
[5] = test system: Pyricularia oryzae (Rice); settings: one or two days before inoculation
[6] = test system: Venturia inaequalis (Apples); assay: Foliar fungal disease test on plants: Venturia inaequalis (Apples); settings: one or two days before inoculation
[7] = test system: Erysiphe graminis tritici (Wheat); assay: Foliar fungal disease test on plants: Erysiphe graminis tritici (Wheat); settings: plants inoculated 24 hours before treatment
[8] = test system: Plasmopara viticola (Vines); assay: Foliar fungal disease test on plants: Plasmopara viticola (Vines); settings: one or two days before inoculation
[9] = 10 ppm foliar spray only, plants inoculated with Puccinia recondita 48 hours before treatment
[10] = 100 ppm a.i. foliar spray or root drench (approx. 40 ppm in dry soil)
[11] = 100 ppm a.i. foliar spray or root drench, plants inoculated with Puccinia recondita 48 hours before treatment

Row | Compound | POCO (Percentage of Control) disease level, Phytophthora infestans (Tomatoes) ([1]; 10 ppm foliar spray only) | POCO (Percentage of Control) disease level, Septoria nodorum (Wheat) ([2]; 10 ppm foliar spray only) | POCO (Percentage of Control) disease level, Thanatephorus cucumeries (Rice) ([3]; 10 ppm foliar spray only) | POCO (Percentage of Control) disease level, Puccinia recondita (Wheat) [4, 9] | POCO (Percentage of Control) disease level, Pyricularia oryzae (Rice) ([5]; 10 ppm foliar spray only) | POCO (Percentage of Control) disease level, Venturia inaequalis (Apples) ([6]; 10 ppm foliar spray only) | POCO (Percentage of Control) disease level, Erysiphe graminis tritici (Wheat) ([7]; 10 ppm foliar spray only) | POCO (Percentage of Control) disease level, Plasmopara viticola (Vines) ([8]; 10 ppm foliar spray only) | POCO (Percentage of Control) disease level, Phytophthora infestans (Tomatoes) [1, 10] | POCO (Percentage of Control) disease level, Septoria nodorum (Wheat) [2, 10] | POCO (Percentage of Control) disease level, Thanatephorus cucumeries (Rice) [3, 10] | POCO (Percentage of Control) disease level, Puccinia recondita (Wheat) ([4]; 100 ppm a.i. foliar spray or root drench (approx. 40 ppm in dry soil), one or two days before inoculation) | POCO (Percentage of Control) disease level, Pyricularia oryzae (Rice) [5, 10] | POCO (Percentage of Control) disease level, Venturia inaequalis (Apples) [6, 10] | POCO (Percentage of Control) disease level, Erysiphe graminis tritici (Wheat) [7, 10] | POCO (Percentage of Control) disease level, Plasmopara viticola (Vines) [8, 10] | POCO (Percentage of Control) disease level, Puccinia recondita (Wheat) [4, 11] | POCO (Percentage of Control) disease level, Puccinia recondita (Wheat) ([4]; 10 ppm foliar spray only, one or two days before inoculation)
1 | COC=C(C(=O)OC)c1ccccc1COC(=O)N1CCc2ccccc21 [5 (133)] | 90 (90 and 94 = 60.1-100% disease present) | 90 (90 and 94 = 60.1-100% disease present) | 90 (90 and 94 = 60.1-100% disease present) | 90+ (90 and 94 = 60.1-100% disease present) | 90 (90 and 94 = 60.1-100% disease present) | 90 (90 and 94 = 60.1-100% disease present) | 60 (60 = 30.1-60% disease present) | 90 (90 and 94 = 60.1-100% disease present) |  |  |  |  |  |  |  |  |  | 
2 | COC=C(C(=O)OC)c1ccccc1COC(=O)Nc1cccc([N+](=O)[O-])c1 [6 (1)] |  |  |  |  |  |  |  |  | 60 (60 = 30.1-60% disease present) | 30 (30 = 20.1-30% disease present) | 90 (90 and 94 = 60.1-100% disease present) | 90 (90 and 94 = 60.1-100% disease present) | 90 (90 and 94 = 60.1-100% disease present) | 60 (60 = 30.1-60% disease present) | 90 (90 and 94 = 60.1-100% disease present) | 90 (90 and 94 = 60.1-100% disease present) |  | 
3 | COC=C(C(=O)OC)c1ccccc1COC(=O)N(CC(F)F)c1cccc([N+](=O)[O-])c1 [6 (5)] | 90 (90 and 94 = 60.1-100% disease present) | 90 (90 and 94 = 60.1-100% disease present) | 90 (90 and 94 = 60.1-100% disease present) | 90+ (90 and 94 = 60.1-100% disease present) | 60 (60 = 30.1-60% disease present) | 0 (0 = 0% disease present) | 20 (20 and 24 = 10.1-20% disease present) | 90 (90 and 94 = 60.1-100% disease present) |  |  |  |  |  |  |  |  |  | 
4 | COC=C(C(=O)OC)c1ccccc1COC(=S)Nc1cccc(OC)c1 [7 (6)] | 90 (90 and 94 = 60.1-100% disease present) | 90 (90 and 94 = 60.1-100% disease present) | 30 (30 = 20.1-30% disease present) | 0+ (0 = 0% disease present) | 10 (10 = 5.1-10% disease present) | 60 (60 = 30.1-60% disease present) | 0 (0 = 0% disease present) | 60 (60 = 30.1-60% disease present) |  |  |  |  |  |  |  |  |  | 
5 | COC=C(C(=O)OC)c1ccccc1COC(=O)Nc1cccc(F)c1 [8 (1)] | 90 (90 and 94 = 60.1-100% disease present) | 90 (90 and 94 = 60.1-100% disease present) | 90 (90 and 94 = 60.1-100% disease present) | 0+ (0 = 0% disease present) | 10 (10 = 5.1-10% disease present) | 0 (0 = 0% disease present) | 60 (60 = 30.1-60% disease present) | 90 (90 and 94 = 60.1-100% disease present) |  |  |  |  |  |  |  |  |  | 
6 | COC=C(C(=O)OC)c1ccccc1COC(=O)N(C)c1cccc(F)c1 [8 (2)] |  |  |  |  |  |  |  |  | 0 (0 = 0% disease present) | 0 (0 = 0% disease present) | 0 (0 = 0% disease present) |  | 0 (0 = 0% disease present) | 0 (0 = 0% disease present) | 0 (0 = 0% disease present) | 0 (0 = 0% disease present) | 0+ (0 = 0% disease present) | 
7 | COC=C(C(=O)OC)c1ccccc1COC(=S)Nc1cccc(F)c1 [8 (6)] | 90 (90 and 94 = 60.1-100% disease present) | 90 (90 and 94 = 60.1-100% disease present) | 90 (90 and 94 = 60.1-100% disease present) |  | 30 (30 = 20.1-30% disease present) | 60 (60 = 30.1-60% disease present) | 90 (90 and 94 = 60.1-100% disease present) | 60 (60 = 30.1-60% disease present) |  |  |  |  |  |  |  |  |  | 90 (90 and 94 = 60.1-100% disease present)
8 | COC=C(C(=O)OC)c1ccccc1COC(=O)N(Cc1ccccc1)c1cccc(F)c1 [8 (97)] |  |  |  |  |  |  |  |  | 90 (90 and 94 = 60.1-100% disease present) | 90 (90 and 94 = 60.1-100% disease present) | 90 (90 and 94 = 60.1-100% disease present) |  | 30 (30 = 20.1-30% disease present) | 30 (30 = 20.1-30% disease present) | 90 (90 and 94 = 60.1-100% disease present) | 0 (0 = 0% disease present) | 90+ (90 and 94 = 60.1-100% disease present) | 
9 | COC=C(C(=O)OC)c1ccccc1COC(=O)N(C)c1cccc(SC)c1 [10 (2)] |  |  |  |  |  |  |  |  | 20 (20 and 24 = 10.1-20% disease present) | 0 (0 = 0% disease present) | 20 (20 and 24 = 10.1-20% disease present) |  | 0 (0 = 0% disease present) | 0 (0 = 0% disease present) | 0 (0 = 0% disease present) | 0 (0 = 0% disease present) | 0+ (0 = 0% disease present) | 
10 | COC=C(C(=O)OC)c1ccccc1COC(=O)Nc1ccccc1Cl [12 (1)] |  |  |  |  |  |  |  |  | 30 (30 = 20.1-30% disease present) | 10 (10 = 5.1-10% disease present) | 30 (30 = 20.1-30% disease present) |  | 5 (5 = 3.1-5% disease present) | 0 (0 = 0% disease present) | 0 (0 = 0% disease present) | 0 (0 = 0% disease present) | 10+ (10 = 5.1-10% disease present) | 
11 | COC=C(C(=O)OC)c1ccccc1COC(=O)N(C)c1ccccc1Cl [12 (2)] |  |  |  |  |  |  |  |  | 5 (5 = 3.1-5% disease present) | 3 (3 = 1.1-3% disease present) | 0 (0 = 0% disease present) |  | 10 (10 = 5.1-10% disease present) | 0 (0 = 0% disease present) | 0 (0 = 0% disease present) | 0 (0 = 0% disease present) | 30+ (30 = 20.1-30% disease present) | 

Source: patent publication US6465457B1 (priority 1991, dated 2002)
